Data from patent publication US6518262B1, “22R-hydroxycholesta-8, 14-diene derivatives for the inhibition of meiosis” (Akzo Nobel N.V., priority 1999, dated 2003).

System: cumulus enclosed oocytes (CEO)
Test: Oocyte assay, antagonistic testing, inhibition of 22S-hydroxy-FF-Mas induced maturation in cumulus enclosed oocytes (CEO assay)
Format: cell-based, mice (B6D2-F1, strain C57BL×DBA)
Conditions: 22S-hydroxy-FF-Mas 5 μM, control (22S-hydroxy-FF-Mas alone) in brackets
Method: The meiosis inhibiting activity of the 22R-hydroxycholesta-8,14-diene derivatives of the invention is measured in an in vitro oocyte assay as the ability to inhibit the FF-Mas or 22S-hydroxy-FF-Mas induced maturation, in hypoxanthine media, in denuded oocytes (DO) or cumulus enclosed oocytes (CEO), respectively. Natural resumption of meiosis can be mimicked in vitro by addition of FF-Mas or other agonists to the culture medium containing hypoxanthine. The antagonistic activity of the compounds is measured as the ability to inhibit the FF-Mas or 22S-hydroxy-FF-Mas induced oocyte maturation in denuded oocytes or cumulus enclosed oocytes, respectively, in vitro. Ovaries are obtained from immature female mice (B6D2-F1, strain C57BL×DBA). At the age of 19, 20 or 21 days the mice are injected subcutaneously with a single dose of 20 IU follicle stimulating hormone (Humegon, Organon, The Netherlands) in saline. Forty-eight hours after follicle stimulating hormone injection mice are killed by cervical dislocation. The ovaries are removed, freed of extraneous tissue and placed in a multidish containing 0.5 ml preparation medium at 37° C. L-15 Leibovitz medium (Gibco, pH 7.3±0.1) supplemented with bovine serum albumin (3 mg·ml^−1), L-glutamine (0.23 mM), sodium pyruvate (2 mM) and hypoxanthine (4 mM) is used as preparation medium. The antral follicles of the ovaries are punctured under a dissecting microscope using two 27-gauge needles attached to two 1 ml syringes. […] At t=0 the number of oocytes with intact germinal vesicles (GV) or germinal vesicle break-down (GVBD) is counted under an inverted microscope with differential interference contrast equipment. […] At the end of the culture period the number of oocytes with GV or GVBD per group is counted. For statistical analysis the percentage germinal vesicle breakdown is calculated for each group in one block. These percentages are subjected to arcsin transformation, and differences between control and test compounds are analyzed by an ANOVA test for a randomized block design. […]

SMILES | % GVBD CEO assay exp. (compound tested 5 M) | % GVBD CEO assay exp.
CC(C)CC[C@@H](O)[C@@H](C)[C@H]1CC=C2C3=C(CC[C@@]21C)[C@@]1(C)CC[C@H](O)C(C)(C)[C@@H]1CC3 [Example 1, (3β,5α,20S,22R)-4,4-Dimethylcholesta-8,14-diene-3,22-diol] | 10(93)^3% | 
CC(C)=CC[C@@H](O)[C@@H](C)[C@H]1CC=C2C3=C(CC[C@@]21C)[C@@]1(C)CC[C@H](O)C(C)(C)[C@@H]1CC3 [Example 2, (3β,5α,20S,22R)-4,4-Dimethylcholesta-8,14,24-triene-3,22-diol] |  | 0(84)^4%
